Where two headings read alike, the source gives them in different places.
Legend:
female rats = settings: for diaphragmatic inflammation, severity grade / thickness of the diaphragm section involved by inflammation: 7 days intraperitoneal
Description: A maximum tolerated dose study was conducted according to the study design in Table 3. Solutions that were administered were made up of a dextrose concentrate or a modified dextrose concentrate and a buffer concentrate or a modified buffer concentrate mixed in a 3:1 ratio (dextrose:buffer). Each test or control article was administered intraperitoneally once daily for 7 consecutive days to each of five different female rats at volumes of 40 mL/kg via a butterfly needle as a bolus injection. Necropsy was performed one day after the last dose.
Tissue samples of the diaphragms from all rats were trimmed, processed, embedded in paraffin, and sectioned. Hematoxylin and eosin stained slides were prepared and examined by light microscopy. Microscopic observations were subjectively graded based on the relative severity of the change: Grade 1=minimal, Grade 2=mild, Grade 3=moderate, grade 4=marked.

[1] = tested on: APOe-KO/CRF mouse model of vascular calcification; settings: for total aortic calcium content, effect on CRF-induced elevation: daily intraperitoneal, 8 weeks
Description: Homozygous apolipoprotein E knockout (apoE^−/−) mice were housed in polycarbonate cages in a pathogen-free, temperature-controlled (25° C.) room with a strict 12-hour light/dark cycle and with free access to lab chow and water. All procedures were in accordance with National Institutes of Health (“NIH”) guidelines for the care and use of experimental animals (NIH publication No. 85-23).
A 2-step procedure was used to create CRF in the mice at 10 weeks of age. Briefly, at age of 8 weeks, cortical electrocauterisation was applied to the right kidney through a 2-cm flank incision and contralateral total nephrectomy was performed through a similar incision 2 weeks later. Other mice underwent a 2-step procedure of sham operations with decapsulation of both kidneys with a 14-day distance between the two operations. Blood samples were taken 2 weeks after nephrectomy, and intra-peritoneal catheters were implanted at this time.
At the end of the study, the heart with the aortic root was then separated from ascending aorta. Cryosections of the aortic root tissue were used for quantification of vascular calcification and were used to assess atherosclerotic lesions at the site of the root. The thoracic part of the aorta was stored at −80° C. and used for quantification of calcium content.
Mice having high LDL will develop atherosclerosis. Those with the added partial nephrectomy will develop kidney impairment and were expected to produce marked vascular calcification of the heart and aorta, thus mimicking the disease seen in many dialysis patients. All groups were treated in a manner to mimic a peritoneal dialysis therapy, with a peritoneal dialysis solution either in the absence of PPi (sham and CRF placebo control groups) or containing two different doses of PPi (as outlined above).
Next, a method was employed whereby morphological image processing algorithms were used for the semi-automated measurement of calcification from sections of aorta stained using von Kossa's silver nitrate procedure (FIGS. 3A and 3B). These were acquired at low magnification power on color images. The process was separated into two sequential phases: 1) segmentation to separate the calcification structures and demarcate the region of the atherosclerotic lesion within the tissue, and 2) the quantification. Calcified structures were measured inside and outside the lesion using a granulometric curve that allows the calculation of statistical parameters of size.

O=P([O-])([O-])OP(=O)(O)O.[Na+].[Na+] [disodium pyrophosphate]
diaphragmatic inflammation, severity grade (female rats; 600 μM): mild (Grade 2) | thickness of the diaphragm section involved by inflammation (female rats; 600 μM): 5-25% | diaphragmatic inflammation, severity grade (female rats; 900 μM): mild in 1 rat and moderate in 4 of 5 rats | thickness of the diaphragm section involved by inflammation (female rats; 900 μM): up to 50% | concentration producing chronic inflammation of the peritoneal surface of the diaphragm (local effect) (female rats; intraperitoneal, 7 consecutive days, 40 mL/kg/day, rats): ≥ 600 µM

O=P(O)(O)OP(=O)(O)O [pyrophosphate]
total aortic calcium content, effect on CRF-induced elevation ([1]; 30 μM PPi in dialysis solution): moderate reduction, that was not statistically significant | total aortic calcium content, effect on CRF-induced elevation ([1]; 150 μM PPi in dialysis solution): completely blocked the effect of CRF on elevation of aortic calcium | aortic root calcification inside the atherosclerotic lesion (von Kossa) ([1]; high dose PPi (150 μM)): completely prevented the elevation due to CRF | aortic root calcification outside the lesion (von Kossa) ([1]; high dose PPi (150 μM)): totally blocked | aortic root calcification outside the lesion (von Kossa) ([1]; low dose PPi (30 μM)): totally blocked | inhibition of aortic root calcification inside the atherosclerotic lesion (von Kossa) ([1]; low dose PPi (30 μM)): approximately 50%

— US20110262555A1, “METHODS AND COMPOSITIONS FOR REDUCING OR PREVENTING VASCULAR CALCIFICATION DURING PERITONEAL DIALYSIS THERAPY” (BAXTER INTERNATIONAL INC., priority 2010, published 2011)
